Measurements published in US8648076B2, “Cysteine protease inhibitors and their therapeutic applications” (Hybrigenics SA, priority 2005, dated 2014).

What was measured:
[1] = target: T1, USP5 (Homo sapiens, UniProt P45974); assay: USP5 activity assay; format: biochemical; conditions: 400 nM Ub-AMC, 300 pM enzyme, 30 min pre-incubation at 25° C., 60 min at 37° C.; sigmoidal fit; AF: Autofluorescent; read-out: USP 5 (inhibition of cysteine protease activity)
T1 sequence (P45974 1-858): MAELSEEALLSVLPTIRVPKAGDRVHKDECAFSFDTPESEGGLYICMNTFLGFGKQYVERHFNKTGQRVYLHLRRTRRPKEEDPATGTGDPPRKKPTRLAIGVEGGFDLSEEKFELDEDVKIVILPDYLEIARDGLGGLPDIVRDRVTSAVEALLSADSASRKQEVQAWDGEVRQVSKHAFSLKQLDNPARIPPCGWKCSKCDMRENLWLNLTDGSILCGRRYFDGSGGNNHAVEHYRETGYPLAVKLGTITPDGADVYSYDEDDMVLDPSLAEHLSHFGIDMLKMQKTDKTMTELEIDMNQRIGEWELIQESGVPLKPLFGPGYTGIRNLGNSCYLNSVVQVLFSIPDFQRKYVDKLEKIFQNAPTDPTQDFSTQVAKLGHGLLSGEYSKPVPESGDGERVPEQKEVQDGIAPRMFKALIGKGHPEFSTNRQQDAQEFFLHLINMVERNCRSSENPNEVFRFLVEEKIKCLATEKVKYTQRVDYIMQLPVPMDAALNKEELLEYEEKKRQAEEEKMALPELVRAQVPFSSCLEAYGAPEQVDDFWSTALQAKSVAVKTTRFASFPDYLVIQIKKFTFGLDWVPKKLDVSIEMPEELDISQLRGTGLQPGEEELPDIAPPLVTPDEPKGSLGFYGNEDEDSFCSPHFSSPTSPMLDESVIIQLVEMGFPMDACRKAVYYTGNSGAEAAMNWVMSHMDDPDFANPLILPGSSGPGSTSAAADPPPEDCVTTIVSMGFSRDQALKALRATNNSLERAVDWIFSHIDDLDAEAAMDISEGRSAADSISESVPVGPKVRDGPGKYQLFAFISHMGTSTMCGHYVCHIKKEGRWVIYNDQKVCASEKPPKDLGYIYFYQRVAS
Method: Bovine Serum Albumin 0.05 mg·ml^−1 pH7.6). Compounds stocks (100 mM) were stored at −20° C. in DMSO. […] Reactions were performed as duplicates in Black LJL 96 well plates (HE microplates; Molecular Devices; 20 μl final reaction volume). The substrate concentration for USP5 was 400 nM Ub-AMC (Boston Biochem). The concentrations of the enzyme (USP5) in specificity assays was 300 pM. The concentrations were determined in order to perform specificity assays under initial velocities at fixed substrate concentration. Compounds were pre-incubated with enzymes for 30 minutes at 25° C. Reactions were initiated by addition of substrate to the plates containing the enzymes (+/− compounds) diluted in assay buffer. Reactions were incubated for 60 minutes at 37° C. Reactions were stopped by adding acetic acid (100 mM final). Readings were performed on a Pherastar Fluorescent Reader (BMG). λ Emission 380 nm; λ Excitation=460 nm. Data (mean values +/− standard deviation) were analyzed as % of control (no compound) and plotted as percentage versus the Log of the compound concentration using GraphPad (Prism). Data were fitted to a sigmoidal model (variable slope).

[2] = target: T2, USP8 (Homo sapiens, UniProt P40818); assay: USP8 activity assay; format: biochemical; conditions: 400 nM Ub-AMC, pH8.8, 30 min pre-incubation at 25° C., 60 min at 37° C.; sigmoidal fit; AF: Autofluorescent; read-out: USP 8 (inhibition of cysteine protease activity)
T2 sequence (P40818 1-1118): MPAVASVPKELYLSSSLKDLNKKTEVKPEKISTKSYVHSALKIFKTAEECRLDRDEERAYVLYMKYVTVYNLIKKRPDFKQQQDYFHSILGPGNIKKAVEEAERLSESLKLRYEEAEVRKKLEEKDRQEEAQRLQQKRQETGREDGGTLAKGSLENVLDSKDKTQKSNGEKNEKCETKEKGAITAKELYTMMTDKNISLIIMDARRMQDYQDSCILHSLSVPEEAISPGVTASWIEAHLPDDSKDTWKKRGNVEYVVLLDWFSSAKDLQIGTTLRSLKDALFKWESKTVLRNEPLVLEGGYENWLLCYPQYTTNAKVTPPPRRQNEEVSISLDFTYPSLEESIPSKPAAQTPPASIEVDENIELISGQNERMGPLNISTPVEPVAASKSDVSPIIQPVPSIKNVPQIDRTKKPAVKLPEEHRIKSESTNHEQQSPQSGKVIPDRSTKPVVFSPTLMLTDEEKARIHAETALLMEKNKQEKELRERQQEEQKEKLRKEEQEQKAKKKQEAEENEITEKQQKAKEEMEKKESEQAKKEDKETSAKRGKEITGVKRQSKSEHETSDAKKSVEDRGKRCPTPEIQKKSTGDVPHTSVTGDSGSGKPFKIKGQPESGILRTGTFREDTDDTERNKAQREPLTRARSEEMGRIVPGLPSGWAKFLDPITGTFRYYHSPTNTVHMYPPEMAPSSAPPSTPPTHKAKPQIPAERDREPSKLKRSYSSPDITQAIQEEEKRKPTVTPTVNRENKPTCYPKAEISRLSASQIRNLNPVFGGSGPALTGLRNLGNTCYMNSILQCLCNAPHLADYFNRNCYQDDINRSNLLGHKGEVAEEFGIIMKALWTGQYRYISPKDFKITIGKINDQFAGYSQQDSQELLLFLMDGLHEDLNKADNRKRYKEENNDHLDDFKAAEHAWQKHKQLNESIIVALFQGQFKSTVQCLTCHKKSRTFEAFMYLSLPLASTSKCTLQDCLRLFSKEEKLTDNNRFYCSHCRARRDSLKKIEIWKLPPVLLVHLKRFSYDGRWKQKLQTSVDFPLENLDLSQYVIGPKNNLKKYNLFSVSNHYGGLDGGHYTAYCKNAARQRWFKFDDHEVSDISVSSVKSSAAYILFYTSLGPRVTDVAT

Compound: N#Cc1nc2c(nc1C#N)-c1ccccc1C2=NOCc1ccccc1 (mixture of isomers) [Example 13C, 9-Benzyloxyimino-9H-indeno[1,2-b]pyrazine-2,3-dicarbonitrile]
- IC50 [1]: > 100 µM
- IC50 [2]: 0.85 µM

Compound: C=CCON=C1c2ccccc2-c2nc(C#N)c(C#N)nc21 (mixture of isomers) [Example 13b, 9-(Allyloxyimino)-9H-indeno[1,2-b]pyrazine-2,3-dicarbonitrile]
- IC50 [1]: > 100 µM
- IC50 [2]: 0.56 µM

Compound: CCON=C1c2ccccc2-c2nc(C#N)c(C#N)nc21 (mixture of isomers) [Example 13d, 9-Ethoxyimino-9H-indeno[1,2-b]pyrazine-2,3-dicarbonitrile]
- IC50 [1]: > 100 µM

Compound: N#Cc1nc2c(nc1C#N)-c1ccccc1C2=Nc1ccccc1 (mixture of isomers) [Example 14, 9-[phenylimino]-9H-indeno[1,2-b]pyrazine-2,3-dicarbonitrile]
- IC50 [1]: 1.9 µM
- IC50 [2]: 0.35 µM

Compound: CC(=O)O/N=C1\c2ccccc2-c2nc(C(N)=O)c(C#N)nc21 (single isomer, unassigned) [Example 35, 2-cyano-9-acetoxyimino-9H-indeno[1,2-b]pyrazine-3-carboxylic acid amide]
- IC50 [1]: 0.161 µM
- IC50 [2]: 0.027 µM

Compound: N#Cc1nc2c(nc1C#N)-c1ccccc1C2=O [Example 1, 9-oxo-9H-indeno[1,2-b]pyrazine-2,3-dicarbonitrile]
- IC50 [1]: 1.3 µM
- IC50 [2]: 0.29 µM

Compound: COc1nc2c(nc1C#N)C(=O)c1ccccc1-2 [Example 3, 3-methoxy-9-oxo-9H-indeno[1,2-b]pyrazine-2-carbonitrile]
- IC50 [1]: > 100 µM
- IC50 [2]: 31 µM

Compound: CN(C)c1nc2c(nc1C#N)C(=O)c1ccccc1-2 [Example 4, 3-dimethylamino-9-oxo-9H-indeno[1,2-b]pyrazine-2-carbonitrile]
- IC50 [1]: > 100 µM
- IC50 [2]: > 100 µM

Compound: COCCOc1nc2c(nc1C#N)C(=O)c1ccccc1-2 [Example 5, 3-(2-methoxy-ethoxy)-9-oxo-9H-indeno[1,2-b]pyrazine-2-carbonitrile]
- IC50 [1]: > 100 µM
- IC50 [2]: 53 µM

Compound: N#Cc1nc2c(nc1O)-c1ccccc1C2=O [Example 6, 3-hydroxy-9-oxo-9H-indeno[1,2-b]pyrazine-2-carbonitrile]
- IC50 [1]: 9.1 µM
- IC50 [2]: 8.4 µM

Compound: N#Cc1nc2c(nc1N)-c1ccccc1C2=O [Example 7, 3-amino-9-oxo-9H-indeno[1,2-b]pyrazine-2-carbonitrile]
- IC50 [1]: > 100 µM
- IC50 [2]: 48 µM

Compound: N#Cc1nc2c(nc1N1CCC(F)(F)CC1)-c1ccccc1C2=O [Example 8, 3-(4,4-difluoro-piperidin-1-yl)-9-oxo-9H-indeno[1,2-b]-pyrazine-2-carbonitrile]
- IC50 [1]: > 100 µM
- IC50 [2]: > 100 µM

Compound: N#Cc1nc2c(nc1Cl)-c1ccccc1C2=O [Example 9, 3-chloro-9-oxo-9H-indeno[1,2-b]pyrazine-2-carbonitrile]
- IC50 [1]: > 100 µM
- IC50 [2]: 16.2 µM

Compound: N#Cc1nc2c(nc1C#N)C1(OCCO1)c1ccccc1-2 [Example 10]
- IC50 [1]: > 100 µM
- IC50 [2]: 13 µM

Compound: N#Cc1nc2c(nc1C(N)=O)-c1ccccc1/C2=N\O [Example 11, 2-cyano-9-[hydroxyimino]-9H-indeno[1,2-b]pyrazine-3-carboxylic acid amide]
- IC50 [1]: 2.1 µM
- IC50 [2]: 0.73 µM

Compound: N#Cc1nc2c(nc1C#N)-c1ccccc1C2=NO [Example 12, 9-[hydroxyimino]-9H-indeno[1,2-b]pyrazine-2,3-dicarbonitrile]
- IC50 [1]: 45 µM
- IC50 [2]: 7 µM

Compound: CON=C1c2ccccc2-c2nc(C#N)c(C#N)nc21 [Example 13a, 9-(methoxyimino)-9H-indeno[1,2-b]pyrazine-2,3-dicarbonitrile]
- IC50 [1]: 19.5 µM
- IC50 [2]: 0.98 µM

Compound: N#Cc1nc2c(nc1C#N)-c1ccccc1/C2=N/Oc1ccccc1 [Example 13e, 9-Phenoxyimino-9H-indeno[1,2-b]pyrazine-2,3-dicarbonitrile]
- IC50 [1]: 32 µM
- IC50 [2]: 0.24 µM

Compound: Cc1cccc2c1Cc1nc(C#N)c(C#N)nc1-2 [Example 16c, 8-Methyl-9H-indeno[1,2-b]pyrazine-2,3-dicarbonitrile]
- IC50 [1]: > 100 µM
- IC50 [2]: > 100 µM

Compound: COc1ccc2c(c1)-c1nc(C#N)c(C#N)nc1C2=O [Example 17a, 6-Methoxy-9-oxo-9H-indeno[1,2-b]pyrazine-2,3-dicarbonitrile]
- IC50 [1]: 29 µM
- IC50 [2]: 4 µM

Compound: COc1cc2c(cc1OC)-c1nc(C#N)c(C#N)nc1C2=O [Example 17b, 6,7-Dimethoxy-9-oxo-9H-indeno[1,2-b]pyrazine-2,3-dicarbonitrile]
- IC50 [1]: > 100 µM
- IC50 [2]: 2.5 µM

Compound: Cc1cccc2c1C(=O)c1nc(C#N)c(C#N)nc1-2 [Example 17c, 8-Methyl-9-oxo-9H-indeno[1,2-b]pyrazine-2,3-dicarbonitrile]
- IC50 [1]: 60 µM
- IC50 [2]: 3.1 µM

Compound: COc1ccc2c(c1OC)C(=O)c1nc(C#N)c(C#N)nc1-2 [Example 17d, 7,8-Dimethoxy-9-oxo-9H-indeno[1,2-b]pyrazine-2,3-dicarbonitrile]
- IC50 [1]: 2.5 µM
- IC50 [2]: 0.71 µM

Compound: Cc1ccc2c(c1)-c1nc(C#N)c(C#N)nc1C2=O [Example 17e, 6-Methyl-9-oxo-9H-indeno[1,2-b]pyrazine-2,3-dicarbonitrile]
- IC50 [1]: 7.8 µM
- IC50 [2]: 0.93 µM

Compound: COc1ccc(OC)c2c1C(=O)c1nc(C#N)c(C#N)nc1-2 [Example 17f, 5,8-Dimethoxy-9-oxo-9H-indeno[1,2-b]pyrazine-2,3-dicarbonitrile]
- IC50 [1]: 3.3 µM
- IC50 [2]: 0.81 µM

Compound: N#Cc1nc2c(nc1C#N)-c1ccc(Cl)cc1C2=O [Example 17g, 7-Chloro-9-oxo-9H-indeno[1,2-b]pyrazine-2,3-dicarbonitrile]
- IC50 [1]: 0.16 µM
- IC50 [2]: 0.096 µM

Compound: N#Cc1nc2c(nc1C#N)-c1ccc(F)cc1C2=O [Example 17h, 7-Fluoro-9-oxo-9H-indeno[1,2-b]pyrazine-2,3-dicarbonitrile]
- IC50 [1]: 1 µM
- IC50 [2]: 0.25 µM

Compound: CCO/C(O)=C(\C#N)c1nc2c(nc1C#N)C(=O)c1ccccc1-2 [Example 22, 3-(1-cyano-2-ethoxy-2-hydroxy-vinyl)-9-oxo-9H-indeno[1,2-b]pyrazine-2-carbonitrile]
- IC50 [1]: > 100 µM
